Experimental findings from patent US20240158446A1, “CYCLIC COMPOUND HAVING SELECTIVE INHIBITORY ACTION ON KRAS OVER HRAS AND NRAS” (CHUGAI SEIYAKU KABUSHIKI KAISHA, priority 2021, published 2024) are described below.

Assay [1] addresses GDP-bound KRAS wild-type protein (Homo sapiens, UniProt P01116). The experiment in a line: Binding to KRAS by surface plasmon resonance (SPR), Single Cycle Kinetics. The conditions noted are these: SPR, Single Cycle Kinetics, GDP-bound KRAS wild-type protein; read-out: KRAS KD.
Assay [2] deals with human lung cancer strain NCI-H441. The experiment in a line: cells. The conditions noted are these: NCI-H441, 96 h, read-out: NCI-H441 IC50 (nM), NCI-H441 cell proliferation, 4 days, CellTiter-Glo.
The target in assay [3] is GDP-bound NRAS wild-type protein (Homo sapiens, UniProt P01111). The experiment in a line: Binding to NRAS by surface plasmon resonance (SPR), Single Cycle Kinetics. The conditions noted are these: ratio of KD for GDP-bound NRAS wild-type protein to KD for KRAS, SPR.
The target in assay [4] is GDP-bound HRAS wild-type protein (Homo sapiens, UniProt P01112). The experiment in a line: Binding to HRAS by surface plasmon resonance (SPR), Single Cycle Kinetics. The conditions noted are these: ratio of KD for GDP-bound HRAS wild-type protein to KD for KRAS, SPR.
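Wherever IC50 is given: cell proliferation inhibition after four days measured by CellTiter-Glo.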

Chain of GDP-bound KRAS wild-type protein (P01116 whole entry): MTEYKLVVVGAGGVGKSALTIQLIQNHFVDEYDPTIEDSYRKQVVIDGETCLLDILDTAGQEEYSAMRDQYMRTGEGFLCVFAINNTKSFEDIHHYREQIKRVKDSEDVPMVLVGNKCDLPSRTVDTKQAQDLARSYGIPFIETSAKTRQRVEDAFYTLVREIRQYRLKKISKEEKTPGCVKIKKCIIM
Chain of GDP-bound HRAS wild-type protein (P01112 whole entry): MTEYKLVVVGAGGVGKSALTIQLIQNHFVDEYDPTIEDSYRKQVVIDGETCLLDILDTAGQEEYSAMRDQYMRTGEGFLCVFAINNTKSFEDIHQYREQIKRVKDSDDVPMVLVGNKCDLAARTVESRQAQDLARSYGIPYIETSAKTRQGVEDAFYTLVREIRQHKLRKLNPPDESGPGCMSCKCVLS
Chain of GDP-bound NRAS wild-type protein (P01111 whole entry): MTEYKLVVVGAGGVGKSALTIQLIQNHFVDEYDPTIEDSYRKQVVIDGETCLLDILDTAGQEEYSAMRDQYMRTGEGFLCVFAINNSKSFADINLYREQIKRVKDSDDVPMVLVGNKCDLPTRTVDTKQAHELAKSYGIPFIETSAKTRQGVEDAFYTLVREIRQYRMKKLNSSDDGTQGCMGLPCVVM

`CCC[C@H]1C(=O)N[C@@H]([C@@H](C)CC)C(=O)N(C)CC(=O)N(C)[C@H]2C/C=C\CCN(C2=O)[C@@H](Cc2ccc(C(F)(F)F)cc2)C(=O)N(C)CC(=O)N[C@@H](CCc2cc(F)c(C(F)(F)F)c(F)c2)C(=O)N2C[C@@H](C)C[C@H]2C(=O)NC2(CC(C)(C)C2)C(=O)N(C)[C@@H](C2CCCC2)C(=O)N(C)[C@H](C(=O)N(C)C)CC(=O)N1C` [PP1683]: in assay [1], the Kd amounted to 0.097 nM. Also, the IC50 in assay [2] was 2.5 nM. Further, the “NRAS/KRAS (KD ratio)” value in assay [3] is “A (a compound having 10 or more and less than 20 is denoted as A)”. In assay [4], the “HRAS/KRAS (KD ratio)” value is “A (a compound having 10 or more and less than 20 is denoted as A)”.
Turning to `CC[C@H](C)[C@@H]1NC(=O)[C@H](CC2CCC2)N(C)C(=O)C[C@@H](C(=O)N(C)C)N(C)C(=O)[C@H](C2CCCC2)N(C)C(=O)C2(CC(C)(C)C2)NC(=O)[C@@H]2C[C@H](C)CN2C(=O)[C@H](CCc2cc(F)c(C(F)(F)F)c(F)c2)NC(=O)CN(C)C(=O)[C@H](Cc2ccc(C(F)(F)F)cc2)N2CC/C=C\C[C@@H](C2=O)N(C)C(=O)CN(C)C1=O` [PP1684], the Kd in assay [1] worked out at 0.15 nM. The IC50 in assay [2] worked out at 7.7 nM. Also, in assay [3], the “NRAS/KRAS (KD ratio)” value is “A (a compound having 10 or more and less than 20 is denoted as A)”. The “HRAS/KRAS (KD ratio)” value in assay [4] was “A (a compound having 10 or more and less than 20 is denoted as A)”.
With `CCCN(C)C(=O)[C@@H]1CC(=O)N(C)[C@@H](CC(F)F)C(=O)N[C@@H]([C@@H](C)CC)C(=O)N(C)CC(=O)N(C)[C@H]2C/C=C\CCN(C2=O)[C@@H](Cc2ccc(C(F)(F)F)cc2)C(=O)N(C)CC(=O)N[C@@H](CCc2cc(F)c(C(F)(F)F)c(F)c2)C(=O)N2C[C@H](F)C[C@H]2C(=O)NC2(CC(C)(C)C2)C(=O)N(C)[C@@H](C2CCCC2)C(=O)N1C` [PP1687], the Kd in assay [1] stood at 0.075 nM. Further, the IC50 in assay [2] was 2.7 nM. Further, the “NRAS/KRAS (KD ratio)” value in assay [3] is “A (a compound having 10 or more and less than 20 is denoted as A)”. In addition, the “HRAS/KRAS (KD ratio)” value in assay [4] was “A (a compound having 10 or more and less than 20 is denoted as A)”.
For the compound `CC[C@H](C)[C@@H]1NC(=O)[C@H](CC(F)(F)F)N(C)C(=O)C[C@@H](C(=O)N(C)C)N(C)C(=O)[C@H](C2CCCC2)N(C)C(=O)C2(CC(C)(C)C2)NC(=O)[C@@H]2C[C@@H](F)CN2C(=O)[C@H](CCc2cc(F)c(C(F)(F)F)c(F)c2)NC(=O)CN(C)C(=O)[C@H](Cc2ccc(C(F)(F)F)cc2)N2CC/C=C\C[C@@H](C2=O)N(C)C(=O)CN(C)C1=O` [PP1688], in assay [1], the Kd was determined as 0.025 nM. Further, the IC50 in assay [2] was 1.5 nM. For the same compound, in assay [3], the “NRAS/KRAS (KD ratio)” value was “A (a compound having 10 or more and less than 20 is denoted as A)”. In addition, the “HRAS/KRAS (KD ratio)” value in assay [4] is “A (a compound having 10 or more and less than 20 is denoted as A)”.
With `CCC[C@H]1C(=O)N[C@@H]([C@@H](C)CC)C(=O)N(C)CC(=O)N(C)[C@H]2C/C=C\CCN(C2=O)[C@@H](Cc2ccc(C(F)(F)F)cc2)C(=O)N(C)CC(=O)N[C@@H](CCc2cc(F)c(C(F)(F)F)c(F)c2)C(=O)N2C[C@H](F)C[C@H]2C(=O)NC2(CC(C)(C)C2)C(=O)N(C)[C@@H](C2CCCC2)C(=O)N(C)[C@H](C(=O)N(C)C)CC(=O)N1C` [PP1689], in assay [1], the Kd is 0.023 nM. The IC50 in assay [2] is 1.4 nM. Further, in assay [3], the “NRAS/KRAS (KD ratio)” value is “A (a compound having 10 or more and less than 20 is denoted as A)”. Besides, the “HRAS/KRAS (KD ratio)” value in assay [4] was “B (a compound having 3 or more and less than 10 is denoted as B)”.
Regarding `C#CC[C@H]1C(=O)N[C@@H]([C@@H](C)CC)C(=O)N(C)CC(=O)N(C)[C@H]2C/C=C\CCN(C2=O)[C@@H](Cc2ccc(C(F)(F)F)cc2)C(=O)N(C)CC(=O)N[C@@H](CCc2cc(F)c(C(F)(F)F)c(F)c2)C(=O)N2C[C@H](F)C[C@H]2C(=O)NC2(CC(C)(C)C2)C(=O)N(C)[C@@H](C2CCCC2)C(=O)N(C)[C@H](C(=O)N(C)CC)CC(=O)N1C` [PP1691], the Kd in assay [1] was determined as 0.06 nM. Also, the IC50 in assay [2] is 3.1 nM. Moreover, the “NRAS/KRAS (KD ratio)” value in assay [3] was “A (a compound having 10 or more and less than 20 is denoted as A)”. The “HRAS/KRAS (KD ratio)” value in assay [4] is “A (a compound having 10 or more and less than 20 is denoted as A)”.
For the compound `C#CC[C@H]1C(=O)N[C@@H]([C@@H](C)CC)C(=O)N(C)CC(=O)N(C)[C@H]2C/C=C\CCN(C2=O)[C@@H](Cc2ccc(C(F)(F)F)cc2)C(=O)N(C)CC(=O)N[C@@H](CCc2cc(F)c(C(F)(F)F)c(F)c2)C(=O)N2C[C@H](F)C[C@H]2C(=O)NC2(CC(C)(C)C2)C(=O)N(C)[C@@H](C2CCCC2)C(=O)N(C)[C@H](C(=O)N(C)CCC)CC(=O)N1C` [PP1692], the Kd in assay [1] was 0.11 nM. In addition, in assay [2], the IC50 is 4.3 nM. For the same compound, in assay [3], the “NRAS/KRAS (KD ratio)” value was “AA (a compound having 20 or more is denoted as AA)”. Moreover, the “HRAS/KRAS (KD ratio)” value in assay [4] is “A (a compound having 10 or more and less than 20 is denoted as A)”.
Regarding `CC[C@H](C)[C@@H]1NC(=O)[C@H](CC(C)C)N(C)C(=O)C[C@@H](C(=O)N(C)CC)N(C)C(=O)[C@H](C2CCCC2)N(C)C(=O)C2(CC(C)(C)C2)NC(=O)[C@@H]2C[C@@H](F)CN2C(=O)[C@H](CCc2cc(F)c(C(F)(F)F)c(F)c2)NC(=O)CN(C)C(=O)[C@H](Cc2ccc(C(F)(F)F)cc2)N2CC/C=C\C[C@@H](C2=O)N(C)C(=O)CN(C)C1=O` [PP1694], the Kd in assay [1] stood at 0.051 nM. Moreover, the IC50 in assay [2] amounted to 4.1 nM. Also, the “NRAS/KRAS (KD ratio)” value in assay [3] is “A (a compound having 10 or more and less than 20 is denoted as A)”. For the same compound, the “HRAS/KRAS (KD ratio)” value in assay [4] was “A (a compound having 10 or more and less than 20 is denoted as A)”.
With `CCCN(C)C(=O)[C@@H]1CC(=O)N(C)[C@@H](COC)C(=O)N[C@@H]([C@@H](C)CC)C(=O)N(C)CC(=O)N(C)[C@H]2C/C=C\CCN(C2=O)[C@@H](Cc2ccc(C(F)(F)F)cc2)C(=O)N(C)CC(=O)N[C@@H](CCc2cc(F)c(C(F)(F)F)c(F)c2)C(=O)N2C[C@H](F)C[C@H]2C(=O)NC2(CC(C)(C)C2)C(=O)N(C)[C@@H](C2CCCC2)C(=O)N1C` [PP1696], in assay [1], the Kd was found to be 0.041 nM. Also, the IC50 in assay [2] stood at 2.9 nM. Moreover, the “NRAS/KRAS (KD ratio)” value in assay [3] is recorded as “AA (a compound having 20 or more is denoted as AA)”. In addition, the “HRAS/KRAS (KD ratio)” value in assay [4] was “A (a compound having 10 or more and less than 20 is denoted as A)”.
As to `CCCOC[C@H]1C(=O)N[C@@H]([C@@H](C)CC)C(=O)N(C)CC(=O)N(C)[C@H]2C/C=C\CCN(C2=O)[C@@H](Cc2ccc(C(F)(F)F)cc2)C(=O)N(C)CC(=O)N[C@@H](CCc2cc(F)c(C(F)(F)F)c(F)c2)C(=O)N2C[C@H](F)C[C@H]2C(=O)NC2(CC(C)(C)C2)C(=O)N(C)[C@@H](C2CCCC2)C(=O)N(C)[C@H](C(=O)N(C)CC)CC(=O)N1C` [PP1697], the equilibrium dissociation constant (Kd) in assay [1] is 0.047 nM. Further, the IC50 in assay [2] was 3.6 nM. For the same compound, the “NRAS/KRAS (KD ratio)” value in assay [3] was “A (a compound having 10 or more and less than 20 is denoted as A)”. Moreover, the “HRAS/KRAS (KD ratio)” value in assay [4] is “A (a compound having 10 or more and less than 20 is denoted as A)”.
As to `CCCOC[C@H]1C(=O)N[C@@H]([C@@H](C)CC)C(=O)N(C)CC(=O)N(C)[C@H]2C/C=C\CCN(C2=O)[C@@H](Cc2ccc(C(F)(F)F)cc2)C(=O)N(C)CC(=O)N[C@@H](CCc2cc(F)c(C(F)(F)F)c(F)c2)C(=O)N2C[C@H](F)C[C@H]2C(=O)NC2(CC(C)(C)C2)C(=O)N(C)[C@@H](C2CCCC2)C(=O)N(C)[C@H](C(=O)N(C)CCC)CC(=O)N1C` [PP1698], the dissociation constant (Kd) in assay [1] is 0.075 nM. In assay [2], the IC50 was 5.1 nM. Besides, in assay [3], the “NRAS/KRAS (KD ratio)” value was “A (a compound having 10 or more and less than 20 is denoted as A)”. Besides, the “HRAS/KRAS (KD ratio)” value in assay [4] is “A (a compound having 10 or more and less than 20 is denoted as A)”.
